Among the data in a melting point compilation (Tetko et al.) are melting point values, retold here.

What is called melting point is the temperature of the solid-liquid transition.

Consider `O=C(O)c1cc(-c2ccc(-c3cc(C(=O)O)c4ccccc4n3)cc2)nc2ccccc12`, for which the melting point is over 315 °C. For the compound `c1ccc2nc(-c3cc(-c4cnc5ccccc5n4)cc(-c4cnc5ccccc5n4)c3)cnc2c1`, the melting point stood at 302 °C.

The compound `Cn1c(=O)c(C2=NNC(=O)C2=CNc2cccnc2)c(O)c2ccccc21` displayed a melting point of 281 °C.

Take `Brc1ccc(-c2csnn2)cc1`: the melting point lay in the range of 154 to 156 °C.

`CCOC(=O)c1cnc2c(c(C)nn2C)c1Cl` had a melting point of 87 to 90 °C. The same measure for `SC1CCCCC1`: -30 °C. As for `O=Cc1cccc(N2CCOCC2)c1`, the melting point is 68 to 70 °C.

Take `Nc1ccc(S(=O)(=O)F)cc1`: the melting point is 68.5 °C.

Take `CC(C)c1ccc(CC(=O)O)cc1`: the melting point turned out to be 52 °C.

Turning to `Clc1cccc2cc3c(Cl)cccc3cc12`, the melting point is 189 °C.

In turn, `CC12CCC3C4CCC(=O)C=C4CCC3C1CCC2O` (stereo not given) had a melting point of 122 °C. The same measure for `FC(F)(F)C1(F)C(F)(F)C(F)(F)C(F)(F)C(F)(C(F)(F)F)C1(F)F` (stereo not given): -55 °C; for `O=C1CCN(C(=O)c2ccccc2)CC1`: 56 to 59 °C; for `NC(=O)CCCCC(N)=O`: 226 °C.

Compound `O=Cc1ccccc1OCc1c(Cl)cccc1Cl` gave a melting point of 109 to 112 °C. As to `N#Cc1cc(Cl)cc(Cl)c1N`, the melting point lay within 120 to 126 °C. As to `CC(CCc1oc2ccc(Br)cc2c1-c1ccc(C)o1)=NO`, the melting point turned out to be 132 °C.

On to `Nc1cc2ccccc2c(Br)n1`, for which the melting point was in the range of 144 to 146 °C. The result for `O=C1c2ccccc2C(=O)c2c(O)cccc21` reads 194 °C.

Compound `O=C(O)C=Cc1cccc(C=CC(=O)O)c1` yielded a melting point of 280 °C. The same measure for `O=Cc1cn2ccccc2n1`: 78 to 79 °C; for `Nc1cc(Br)ccc1Cl`: 48 to 49 °C. The result for `Brc1ccc(Oc2ccc(Br)cc2Br)c(Br)c1` reads 78.5 to 79 °C; that for `CCOC(=O)c1csc(C2CCN(C(=O)OC(C)(C)C)CC2)n1`, 71 to 73 °C. Take `OCc1cc(O)cc(O)c1`: the melting point was 181 to 186 °C.

On to `Fc1ccccc1C1=NCC(=S)N(CC(F)(F)F)c2ccc(Cl)cc21`, for which the melting point is 138 °C.

Compound `CCC(=O)Nc1ccc(Cl)c(Cl)c1` gave a melting point of 92 °C.

With `N#CC(Br)c1ccccc1` (stereo not given), the melting point stood at 29 °C. `O=Cc1cccc2c(Br)cccc12` registered a melting point of 105 °C. On to `O=C(O)C(F)c1ccccc1` (stereo not given), for which the melting point was in the range of 82 to 85 °C. For `CC(=O)n1cc(C=O)c2ccccc21`, the melting point was found to be 162 °C. Consider `NNC(=O)c1sc2ccccc2c1Cl`, for which the melting point was 181 to 183 °C. Turning to `OC12CCCCC1c1ccccc12` (stereo not given), the melting point was determined as 112 °C. In turn, `CCOC(=O)C1=NN(c2ccc(Cl)cc2Cl)C(C)(C(=O)OCC)C1` (stereo not given) yielded a melting point of 51 °C. `FC(F)(F)C(F)(Cl)C(F)(Cl)C(F)(F)F` (stereo not given) registered a melting point of -68 °C. The result for `CC(=O)Nc1cc(CCNC(=O)c2ccccc2)c(NC(C)=O)cc1CCNC(=O)c1ccccc1` reads 285 °C. The result for `COc1ccccc1N1CCN(CC(N)=S)CC1` reads 130 to 132 °C; that for `Cc1ccc(S(=O)(=O)OC2CCCCC2)cc1`, 46 °C; that for `Cn1nc(-c2cccs2)cc1CCl`, 96 to 97 °C. In turn, `CC(C)(C)OC(=O)n1cc(C(=O)O)c2cc(Br)ccc21` registered a melting point of 206 to 209 °C.

For the compound `O=c1oc(=O)c2cc3c(=O)oc(=O)c3cc12`, the melting point is 283 to 287 °C. For the compound `CC(=O)NCc1cnccc1C`, the melting point was 92 °C. The result for `CN(C)C(=O)OC1N=C(c2ccccc2)c2cc(Cl)ccc2N(C)C1=O` (stereo not given) reads 174 °C; that for `Nc1nc(=O)c2[nH]c(=S)[nH]c2[nH]1`, 300 °C; that for `Cc1[nH]nc(C(F)(F)C(F)(F)C(F)(F)F)c1[N+](=O)[O-]`, 97 to 98 °C. The result for `O=C(NNC(=O)c1ccc(Cl)cc1)c1ccc(Cl)cc1` reads 260 °C; that for `O=C(NCc1ccc(Cl)cc1)c1cc([N+](=O)[O-])cc([N+](=O)[O-])c1`, 200 to 202 °C; that for `Cc1ccc(C(=O)C=Cc2ccc(-c3ccc([N+](=O)[O-])cc3)o2)o1`, 178 to 179 °C. Compound `NS(=O)(=O)c1cc2c(s1)C(O)CCS2` (stereo not given) gave a melting point of 158 °C.

Consider `O=CC(Cl)C=O`, for which the melting point lay in the range of 140 to 145 °C. As to `Cc1ncccc1O`, the melting point is 168 °C.

The compound `O=C1C(Cl)=C(Cl)C(=O)C(Cl)=C1Cl` returned a melting point of 290 °C. The result for `CN(C)C(c1ccccc1)c1ccccc1` reads 69 °C; that for `C=C1CC2CC(OC(=O)c3ccccc3)CCC2(C)C2CCC3(C)C(OC(=O)c4ccccc4)CCC3C12` (stereo not given), 192 °C; that for `Clc1cnc(Cl)c(Cl)c1`, 49 °C. `O=C(O)C=C(CC(=O)O)C(=O)O` displayed a melting point of 187 to 191 °C. The compound `COc1ccccc1OC(C)=O` had a melting point of 31.5 °C. In turn, `CCCCCCCCC(N)=O` registered a melting point of 99.5 °C.

`CCOC(=O)C1=C(C)Nc2ccccc2S1` registered a melting point of 143 °C. `C=CC(C)(O)CCC=C(C)CCC=C(C)C` (stereo not given) showed a melting point of 25 °C. Compound `CN(C)c1ccc(C=Cc2nc3ccccc3s2)cc1` had a melting point of 210 °C. The compound `Nc1c(C(=O)O)ccc2c1C(=O)c1ccccc1C2=O` returned a melting point of 296 °C. `Cc1ccnc(SCC(=O)O)n1` yielded a melting point of 192 °C. `c1ccc(-c2nc3ccccc3o2)cc1` showed a melting point of 103 °C.

Compound `C=CCOC1=NS(=O)(=O)c2ccccc21` came in with a melting point of 138 °C. `O=C(Cl)OCC(Cl)(Cl)Cl`: the melting point worked out at 1 °C. The compound `Cc1cccc(/N=N/c2c(N)nn3c(C(F)(F)F)cc(C)nc23)c1` returned a melting point of 209 °C. As to `CCCC(C(N)=O)c1ccc(O)c(O)c1` (stereo not given), the melting point lay in the range of 133 to 135 °C. Take `C=CC1CNC(=S)O1` (stereo not given): the melting point came to 50 °C. Compound `CCOC(=O)c1nn(-c2ccc(C)cc2)c(C)c1C(=O)c1noc(-c2ccc(C)cc2)c1S(=O)(=O)c1ccccc1` showed a melting point of 180 °C. Regarding `C=CCC1=C(O)C2=CC=C3C(C)=C(C)C(=O)CC3(C)C2=C(O)C1=O` (stereo not given), the melting point turned out to be 171 °C. With `CC(=O)Cc1c[nH]c2ccccc12`, the melting point was 116 °C. `C#CC1(O)CCC2(C)C(C1)CC1(OCCO1)C1C3CCC(=O)C3(C)CCC12` (stereo not given) came in with a melting point of 308 °C.

For the compound `Oc1nccnc1O`, the melting point worked out at 300 °C.

The compound `O=C(O)Cc1ccc(C(=O)CCl)s1` displayed a melting point of 101 to 104 °C. In turn, `Nc1ccc2cc(S(=O)(=O)O)cc(S(=O)(=O)O)c2c1` returned a melting point of 300 °C.

Compound `CC(O)C#N` (stereo not given) had a melting point of -40 °C.

Turning to `Nc1ccc(C=CC(=O)O)cc1`, the melting point was 122 °C. `COC(=O)c1ccccc1NC(=S)NNC(=O)C(=O)c1c[nH]c2ccccc12` yielded a melting point of 283 °C. The compound `Brc1cn[nH]c1` gave a melting point of 94.5 °C. `Oc1ccc(C2SCCS2)cc1` came in with a melting point of 118 °C. As for `Brc1ccc(-c2c(Br)c(Br)c(Br)c(Br)c2Br)c(Br)c1Br`, the melting point was determined as 225 °C. For the compound `Nc1ccc(CO)cn1`, the melting point was found to be 120 °C. `CCc1ccccc1Nc1ccccc1CC` had a melting point of 29 °C. The result for `NC(=O)NN=CC(=O)c1ccc(C(=O)C=NNC(N)=O)cc1` reads 246 °C; that for `CC1COC(=O)O1` (stereo not given), -48.8 °C. Compound `O=C(O)c1cc(F)c(F)c(O)c1F` returned a melting point of 143 to 147 °C.

In turn, `O=C(O)C(F)(F)C(F)(F)C(F)(F)C(F)(F)C(F)(F)C(F)(F)C(F)(F)C(F)(F)C(F)(F)C(F)(F)C(F)(F)C(F)(F)F` gave a melting point of 118 to 122 °C. `COC1=C(OC)/C(=C/CN=[N+]=[N-])OC1=O` came in with a melting point of 55 to 57 °C. Turning to `Cc1nn(-c2ccccc2)nc1C(=O)Cl`, the melting point was 104 to 105 °C. As to `OCC(I)CC(F)(F)C(F)(F)C(F)(F)C(F)(F)C(F)(F)C(F)(F)F` (stereo not given), the melting point was 45 to 46 °C. The result for `O=CNCC(=O)O` reads 149 °C. Take `COc1c(Cl)cccc1Cl`: the melting point was 10 to 11 °C. Turning to `C=CCN1C(=O)C(CC(C)C)NC1=S` (stereo not given), the melting point worked out at 210 °C. The compound `COc1ccc(CC(=O)O)cc1` gave a melting point of 87 °C. In the case of `CC1(C)C2CCC13CS(=O)(=O)N[C@H]3C2` (stereo not given in full), the melting point is 181 to 185 °C. The compound `CN1C(=O)CSC1=S` showed a melting point of 72 to 73 °C. The compound `N#CCc1ccc(-c2ccccc2)cc1` gave a melting point of 95 °C. On to `CC1CCc2cc3c(cc2N1)CCC(C)N3C(=O)c1ccccc1` (stereo not given), for which the melting point was found to be 145 °C. For `c1ccc(CCCCc2ccccc2)cc1`, the melting point is 52.5 °C. As for `Cc1ccc(C(C)(C)C(=O)ON)cc1`, the melting point was 119 °C. The compound `O=S1OCC2C(CO1)C1(Cl)C(Cl)=C(Cl)C2(Cl)C1(Cl)Cl` (stereo not given) yielded a melting point of 109 °C. The result for `O=C(O)CCc1ccco1` reads 58 °C. The compound `Cc1cc(N(C)C)ccc1N=Nc1ccccc1` displayed a melting point of 68 °C. The compound `c1ccc2c(c1)Oc1nc3ccccc3nc1O2` displayed a melting point of 256 °C. `Ic1cn(C(c2ccccc2)(c2ccccc2)c2ccccc2)cn1`: the melting point fell in the range of 224 to 225 °C. `CC1=NN(c2ccccc2)C(=O)C1=Cc1c(O)c2cccc(C)c2[nH]c1=O` came in with a melting point of 171 °C. Take `O=C(O)c1cc(Br)c(Br)o1`: the melting point was 171 °C. The result for `COc1ccc([N+](=O)[O-])cc1C(F)(F)F` reads 79 to 81 °C; that for `CCSc1nnc(N)s1`, 133 to 136 °C.
